Experimental data as given in publication PMC8344243, “Design, synthesis, docking, ADMET studies, and anticancer evaluation of new 3-methylquinoxaline derivatives as VEGFR-2 inhibitors and apoptosis inducers” (Journal of Enzyme Inhibition and Medicinal Chemistry, 2021).

How the values were obtained:
HepG2 = experiment: MTT anti-proliferative assay, HepG2; format: cell-based; conditions: Homo sapiens, read-out: Cytotoxicity on cancer cells IC50, HepG2
Description: (§1) In vitro cytotoxic activities of the synthesised compounds were evaluated against two different cancer cell lines; breast cancer (MCF-7) and hepatocellular carcinoma (HepG2) using standard MTT colorimetric assay as described by Mosmann[78]^,[79]. […].
(§2) The in vitro antiproliferative activities were assessed using the MTT assay protocol[78]^,[79]^,[95]. As shown in Supplementary Data.

[1] = Cytotoxicity against primary rat hepatocytes (normal hepatic cells); format: cell-based; conditions: rat, primary rat hepatocytes
Source text: (§3) It is of high importance for anticancer agents to have minimum side effects on normal cells. […].

primary rat hepatocytes = experiment: as above; format: cell-based; conditions: HepG2 vs primary rat hepatocytes
Source text: as §3

MCF-7 = experiment: MTT anti-proliferative assay, MCF-7; format: cell-based; conditions: for IC50: Homo sapiens, MCF7, MCF-7, MTT assay, read-out: Cytotoxicity on cancer cells IC50, MCF-7
Description: as §1, §2

human VEGFR-2 = biological target: T1, human VEGFR-2 (Homo sapiens, UniProt P35968); experiment: In vitro VEGFR-2 enzyme inhibition assay (ELISA kit, HepG2 cell line); format: biochemical; conditions: human VEGFR-2 in HepG2 cell line
T1 construct: endogenous in cells; host or cells: HepG2
Source text: The synthesised compounds were estimated for their in vitro inhibition on human VEGFR-2 in HepG2 cell line; using ELISA kit[96] as described in Supplementary Data.

T1 sequence (P35968 20-1356): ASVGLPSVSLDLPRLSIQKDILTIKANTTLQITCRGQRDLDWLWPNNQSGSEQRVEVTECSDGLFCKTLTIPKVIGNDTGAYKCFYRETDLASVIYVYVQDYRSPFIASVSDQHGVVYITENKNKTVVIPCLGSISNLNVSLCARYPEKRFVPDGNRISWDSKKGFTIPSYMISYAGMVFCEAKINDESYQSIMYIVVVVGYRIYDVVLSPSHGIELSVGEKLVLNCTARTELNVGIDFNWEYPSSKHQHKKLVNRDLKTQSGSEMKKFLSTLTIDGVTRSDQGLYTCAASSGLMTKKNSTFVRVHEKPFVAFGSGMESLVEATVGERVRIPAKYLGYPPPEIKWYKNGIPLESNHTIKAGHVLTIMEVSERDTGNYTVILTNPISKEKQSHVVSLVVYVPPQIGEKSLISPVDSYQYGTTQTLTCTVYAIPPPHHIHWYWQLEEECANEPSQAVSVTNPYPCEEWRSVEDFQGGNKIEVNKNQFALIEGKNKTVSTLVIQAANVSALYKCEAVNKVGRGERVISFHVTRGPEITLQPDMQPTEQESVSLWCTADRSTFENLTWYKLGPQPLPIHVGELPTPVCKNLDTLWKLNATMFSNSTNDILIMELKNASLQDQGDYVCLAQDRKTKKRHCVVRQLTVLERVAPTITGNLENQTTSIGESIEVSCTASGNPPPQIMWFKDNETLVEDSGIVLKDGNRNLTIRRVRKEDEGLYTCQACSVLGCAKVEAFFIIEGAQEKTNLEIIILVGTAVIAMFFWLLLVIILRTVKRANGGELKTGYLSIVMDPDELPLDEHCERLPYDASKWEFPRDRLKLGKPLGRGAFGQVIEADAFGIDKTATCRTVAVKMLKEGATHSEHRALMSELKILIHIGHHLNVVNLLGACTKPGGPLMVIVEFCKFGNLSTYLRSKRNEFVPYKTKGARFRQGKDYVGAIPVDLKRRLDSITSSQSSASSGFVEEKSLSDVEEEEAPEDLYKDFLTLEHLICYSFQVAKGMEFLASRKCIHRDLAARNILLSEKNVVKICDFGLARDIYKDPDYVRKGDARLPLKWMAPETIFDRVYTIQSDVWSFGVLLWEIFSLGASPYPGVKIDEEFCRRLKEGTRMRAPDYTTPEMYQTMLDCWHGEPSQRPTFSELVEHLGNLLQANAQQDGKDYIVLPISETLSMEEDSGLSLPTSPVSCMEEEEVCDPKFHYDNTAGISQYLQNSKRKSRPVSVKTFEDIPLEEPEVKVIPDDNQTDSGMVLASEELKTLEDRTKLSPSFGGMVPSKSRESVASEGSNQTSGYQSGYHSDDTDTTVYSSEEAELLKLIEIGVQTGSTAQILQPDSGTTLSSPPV

IC50 (human VEGFR-2) [µM]	melting point [°C]	SMILES	IC50 (HepG2) [µM]	IC50 [1] [µM]	Cytotoxic activity against cancer HepG2 cell line more than against normal hepatic cells (primary rat hepatocytes) [fold]	IC50 (MCF-7) [µM]	Activity against the MCF-7 cell line (in words) (MCF-7)
0.0118	200 to 202	Cc1nc2ccccc2nc1SCC(=O)Nc1ccc(C(=O)Nc2ccc([N+](=O)[O-])cc2)cc1 [Compound 30h, 4-(2-((3-Methylquinoxalin-2-yl)thio)acetamido)-N-(4-nitrophenyl)benzamide]	17.7			21.3	
0.0049		Cc1ccccc1NC(=O)c1ccc(NC(=O)CSc2nc3ccccc3nc2C)cc1 [Compound 30f, 4-(2-((3-Methylquinoxalin-2-yl)thio)acetamido)-N-(o-tolyl)benzamide]	10.7	15.7	1.5	18.1	
0.0061		Cc1nc2ccccc2nc1SCC(=O)Nc1ccc(C(=O)Nc2ccc(Cl)cn2)cc1 [Compound 30i, N-(5-Chloropyridin-2-yl)-4-(2-((3-methylquinoxalin-2-yl)thio)acetamido)benzamide]	12.7			17.2	
0.0051	196 to 198	Cc1nc2ccccc2nc1SCC(=O)Nc1ccc(C(=O)NNC(=O)c2ccc([N+](=O)[O-])cc2)cc1 [Compound 31b, 2-((3-Methylquinoxalin-2-yl)thio)-N-(4-(2-(4-nitrobenzoyl)hydrazine-1-carbonyl)phenyl) acetamide]	13.7			19.2	
0.0157	220 to 222	Cc1nc2ccccc2nc1SCC(=O)Nc1ccc(C(=O)NCCc2ccccc2)cc1 [Compound 30d, 4-(2-((3-Methylquinoxalin-2-yl)thio)acetamido)-N-phenethylbenzamide]	32.4			42.7	
0.0298	231 to 233	Cc1nc2ccccc2nc1SCC(=O)Nc1ccc(C(=O)NC(C)(C)C)cc1 [Compound 30a, N-(tert-Butyl)-4-(2-((3-methylquinoxalin-2-yl)thio)acetamido)benzamide]	43.7			61.9	inactive
0.0107		Cc1nc2ccccc2nc1SCC(=O)Nc1ccc(C(=O)NNC(=O)c2ccccc2)cc1 [Compound 31a, N-(4-(2-benzoylhydrazine-1-carbonyl)phenyl)-2-((3-methylquinoxalin-2-yl)thio) acetamide]	18.7			23.1	
0.0274		Cc1nc2ccccc2nc1SCC(=O)Nc1ccc(C(=O)Nc2ccccc2)cc1 [Compound 30e, 4-(2-((3-Methylquinoxalin-2-yl)thio)acetamido)-N-phenylbenzamide]	24.3			31.3	
0.0138	235 to 237	Cc1nc2ccccc2nc1SCC(=O)Nc1ccc(C(=O)NCc2ccccc2)cc1 [Compound 30c, N-benzyl-4-(2-((3-methylquinoxalin-2-yl)thio)acetamido)benzamide]	34.1			41.9	
0.0389		COc1cccc(OC)c1NC(=O)c1ccc(NC(=O)CSc2nc3ccccc3nc2C)cc1 [Compound 30g, N-(2,6-Dimethoxyphenyl)-4-(2-((3-methylquinoxalin-2-yl)thio)acetamido) benzamide]	40.8			61.7	inactive
0.0087		Cc1nc2ccccc2nc1SCC(=O)Nc1ccc(C(=O)NC2CCCCC2)cc1 [Compound 30b, N-Cyclohexyl-4-(2-((3-methylquinoxalin-2-yl)thio)acetamido)benzamide]	34.2			43.8	

Continued, molecule first:

SMILES	IC50 (human VEGFR-2) [µM]	melting point [°C]	IC50 (HepG2) [µM]	IC50 [1] [µM]	Cytotoxic activity against cancer HepG2 cell line more than against normal hepatic cells (primary rat hepatocytes) [fold]	IC50 (MCF-7) [µM]	Activity against the MCF-7 cell line (in words) (MCF-7)
CNC(=O)c1cc(Oc2ccc(NC(=O)Nc3ccc(Cl)c(C(F)(F)F)c3)cc2)ccn1 [Sorafenib, reference compound]			2.17	17.3	8		
Cc1nc2ccccc2n(CC(=O)Nc2ccc(C(=O)NNC(=O)c3ccc([N+](=O)[O-])cc3)cc2)c1=O [Compound 28, 2-(3-Methyl-2-oxoquinoxalin-1(2H)-yl)-N-(4-(2-(4-nitrobenzoyl)hydrazine-1-carbonyl)phenyl)acetamide]	0.0042		11.7			17.2	
COc1cccc(OC)c1NC(=O)c1ccc(NC(=O)Cn2c(=O)c(C)nc3ccccc32)cc1 [Compound 27c, N-(2,6-Dimethoxyphenyl)-4-(2-(3-methyl-2-oxoquinoxalin-1(2H)-yl)acetamido)-benzamide]	0.0116	> 300	42.6			57.2	inactive
Cc1nc2ccccc2nc1SCC(=O)Nc1ccc(C(=O)NNc2ccccc2)cc1 [Compound 32, 2-((3-Methylquinoxalin-2-yl)thio)-N-(4-(2-phenylhydrazine-1-carbonyl)phenyl) acetamide]	0.0238		41.3			59.5	inactive
Cc1nc2ccccc2n(CC(=O)Nc2ccc(C(=O)NCCc3ccccc3)cc2)c1=O [Compound 27b, 4-(2-(3-Methyl-2-oxoquinoxalin-1(2H)-yl)acetamido)-N-phenethylbenzamide]	0.0225	283 to 285	41.5			62.3	inactive
Cc1nc2ccccc2n(CC(=O)Nc2ccc(C(=O)NNc3ccccc3)cc2)c1=O [Compound 29, 2-(3-Methyl-2-oxoquinoxalin-1(2H)-yl)-N-(4-(2-phenylhydrazine-1-carbonyl)phenyl) acetamide]	0.0098		17.5			23.5	
Cc1nc2ccccc2n(CC(=O)Nc2ccc(C(=O)Nc3ccc([N+](=O)[O-])cc3)cc2)c1=O [Compound 27e, 4-(2-(3-Methyl-2-oxoquinoxalin-1(2H)-yl)acetamido)-N-(4-nitrophenyl)benzamide]	0.0217	> 300	27.5			42.3	
Cc1nc2ccccc2n(CC(=O)Nc2ccc(C(=O)Nc3ccc(Cl)cn3)cc2)c1=O [Compound 27f, N-(5-Chloropyridin-2-yl)-4-(2-(3-methyl-2-oxoquinoxalin-1(2H)-yl)acetamido)-benzamide]	0.0107	> 300	19.7			22.7	
Cc1cccc(C)c1NC(=O)c1ccc(NC(=O)Cn2c(=O)c(C)nc3ccccc32)cc1 [Compound 27d, N-(2,6-Dimethylphenyl)-4-(2-(3-methyl-2-oxoquinoxalin-1(2H)-yl)acetamido)-benzamide]	0.0218	240 to 242	24.1			30.7	
